Holding throughout (assay type): cell-based
The target of test [1] is T1, AR protein (Homo sapiens, UniProt P10275, T878A).
T1 construct: degradation activity of the compounds disclosed in the present disclosure on AR protein in LNCaP cells; host or cells: LNCaP FGC
T1 sequence (P10275 1-920 T878A): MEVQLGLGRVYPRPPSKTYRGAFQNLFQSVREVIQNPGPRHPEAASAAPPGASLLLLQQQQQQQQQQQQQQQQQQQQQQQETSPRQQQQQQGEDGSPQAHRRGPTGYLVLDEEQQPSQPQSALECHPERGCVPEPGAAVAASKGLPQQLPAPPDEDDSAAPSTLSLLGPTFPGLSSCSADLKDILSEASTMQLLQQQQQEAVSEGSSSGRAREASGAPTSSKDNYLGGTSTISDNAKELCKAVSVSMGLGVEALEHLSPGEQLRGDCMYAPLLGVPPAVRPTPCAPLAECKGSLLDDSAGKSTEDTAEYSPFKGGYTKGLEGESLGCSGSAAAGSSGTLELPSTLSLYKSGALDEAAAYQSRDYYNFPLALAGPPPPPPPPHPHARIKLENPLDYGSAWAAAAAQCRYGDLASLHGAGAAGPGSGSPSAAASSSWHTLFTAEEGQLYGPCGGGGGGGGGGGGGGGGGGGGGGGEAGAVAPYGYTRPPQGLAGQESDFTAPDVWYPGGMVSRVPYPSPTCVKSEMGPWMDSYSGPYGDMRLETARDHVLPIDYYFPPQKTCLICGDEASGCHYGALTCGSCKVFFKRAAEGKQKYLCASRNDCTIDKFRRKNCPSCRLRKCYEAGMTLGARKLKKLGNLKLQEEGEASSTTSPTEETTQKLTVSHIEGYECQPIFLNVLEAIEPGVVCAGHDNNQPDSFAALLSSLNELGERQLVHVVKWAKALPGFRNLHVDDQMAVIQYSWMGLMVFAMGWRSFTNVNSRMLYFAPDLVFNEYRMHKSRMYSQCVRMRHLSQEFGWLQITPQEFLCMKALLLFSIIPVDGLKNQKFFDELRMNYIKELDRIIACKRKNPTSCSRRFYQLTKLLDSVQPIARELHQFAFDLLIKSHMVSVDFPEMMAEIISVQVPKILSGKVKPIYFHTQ
The experiment in a line: Degradation of AR protein in LNCaP cells (Western blot). Conditions: LNCaP cells, 8 hours, Western blot grayscale, GAPDH internal reference; for inhibition at 0.01 µM: compound 10 nM, read-out: Degradation rates of the AR protein in LNCaP cells, 10 nM (%); for inhibition at 0.1 µM: compound 100 nM, read-out: Degradation rates of the AR protein in LNCaP cells, 100 nM (%). Summed up: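 AR assessed by SDS-PAGE/Western blot with infrared imaging; band greyscale normalised to GAPDH gave percent degradation.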

Test [2] has as its target T2, AR protein (Homo sapiens, UniProt P10275).
T2 construct: degradation activity of the compounds disclosed in the present disclosure on AR protein in VCaP cells; host or cells: VCaP
T2 sequence (P10275 1-920): T1 sequence (P10275 1-920 T878A) with A878T
The experiment in a line: Degradation of AR protein in VCaP cells (Western blot). The conditions noted are these: 8 hours; for inhibition at 0.01 µM: compound at 10 nM, read-out: Degradation rate of the AR protein in VCaP cells, 10 nM (%); for inhibition at 0.1 µM: compound at 100 nM, read-out: Degradation rate of the AR protein in VCaP cells, 100 nM (%). Summed up:
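VCaP cells treated with compound alongside solvent controls for 8 h, then lysed in RIPA and protein quantified by BCA. AR detected by SDS-PAGE/Western blot with infrared imaging. Degradation rate calculated from band grayscale, with GAPDH as internal reference.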
A general note: In western blotting, separated proteins are transferred to a membrane and probed.

In a further test the test system is LNCaP FGC cells. Put plainly: Inhibition of proliferation of LNCaP cells (WST-8). Conditions: Homo sapiens, LNCaP, 96 h, LNCaP FGC cells, 96 hours, WST-8 absorbance at 450 nm; read-out: IC50 for inhibiting the proliferation of LNCaP cells. How it is done:
The cells were cultured in a cell culture incubator with 5% CO2 at 37° C. overnight. […] On the sixth day, 96 well plates were taken out, and 20 μL of WST-8 (Beytime, C0040) reagent was added to each well.
On the technique in general: Tetrazolium dyes change colour on reduction, which living cells bring about.

A further test has as its system VCaP cells. The experiment in a line: Inhibition of proliferation of VCaP cells (WST-8). The conditions noted are these: Homo sapiens; VCaP cells, 168 hours, WST-8 absorbance at 450 nm; read-out: IC50 for inhibiting the proliferation of VCaP cells. Summed up: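 VCaP FGC cells, 15000 per well in DMEM with 10% FBS, were cultured at 37° C, 5% CO2. On day nine, WST-8 reagent was added to read proliferation.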

Numbering of substitutions follows the chain as printed.

With `N#Cc1ccc(O[C@H]2CC[C@H](NC(=O)c3ccc(N4CC[C@H](CN5CCC6(CC5)COc5cc7c(cc56)C(=O)N(C5CCC(=O)NC5=O)C7=O)C4)nn3)CC2)cc1Cl` (stereo partly drawn) [Compound 58], the inhibition at 0.01 µM at AR protein [1] stood at 33%; on AR protein [2], 91%. Besides, the figures for the inhibition at 0.1 µM on AR protein [1] and on AR protein [2] were 58% and 93%, respectively. Moreover, the IC50 was 1.8 µM in the test with LNCaP FGC cells and 0.069 µM with VCaP cells.
Take `N#Cc1ccc(O[C@H]2CC[C@H](NC(=O)c3ccc(N4CCC(F)(CN5CC6(CCc7ccc8c(c7O6)C(=O)N(C6CCC(=O)NC6=O)C8=O)C5)CC4)nn3)CC2)cc1Cl` (stereo partly drawn) [Compound 164]: the figures for the inhibition at 0.01 µM on AR protein [1] and at AR protein [2] were 25% and 4%, respectively. The inhibition at 0.1 µM on AR protein [1] worked out at 4%; at AR protein [2], 8%. Moreover, the IC50 in the test with LNCaP FGC cells is 90.5 µM; with VCaP cells, 11.8 µM.
In the case of `COC1(CN2CCC3(CC2)COc2ccc4c(c2C3)C(=O)N(C2CCC(=O)NC2=O)C4)CCN(c2ccc(C(=O)N[C@H]3CC[C@H](Oc4ccc(C#N)c(Cl)c4)CC3)nn2)CC1` (stereo partly drawn) [Compound 148], the inhibition at 0.01 µM at AR protein [1] was 38%; on AR protein [2], 18%. Further, the inhibition at 0.1 µM on AR protein [1] amounted to 36%; at AR protein [2] it was 35%. In addition, the IC50 was 8.66 µM in the test on LNCaP FGC cells and 4.01 µM with VCaP cells.
Take `N#Cc1ccc(O[C@H]2CC[C@H](NC(=O)c3ccc(N4CCC(CN5CCC6(CCc7cc8c(cc7O6)C(=O)N(C6CCC(=O)NC6=O)C8)CC5)CC4)nn3)CC2)cc1Cl` (stereo partly drawn) [Compound 44]: the values for the inhibition at 0.01 µM on AR protein [1] and on AR protein [2] were 85% and 79%, respectively. In addition, the inhibition at 0.1 µM was 84% at AR protein [1] and 83% at AR protein [2]. Moreover, the IC50 in the test with LNCaP FGC cells was found to be 1.14 µM; with VCaP cells, 0.0025 µM.
Regarding `C[C@H]1CN(c2ccc(C(=O)N[C@H]3CC[C@H](Oc4ccc(C#N)c(Cl)c4)CC3)nn2)C[C@@H]1CN1CCC2(CC1)COc1c2ccc2c1CN(C1CCC(=O)NC1=O)C2=O` (stereo partly drawn) [Compound 212], the inhibition at 0.01 µM at AR protein [1] amounted to 79%; on AR protein [2] it was 60%. Moreover, the inhibition at 0.1 µM was found to be 70% on AR protein [1] and 82% at AR protein [2]. Moreover, the IC50 was 0.32 µM in the test on LNCaP FGC cells and 0.001 µM in the test on VCaP cells.
On to `N#Cc1ccc(O[C@H]2CC[C@H](NC(=O)c3ccc(N4CCC(CN5CCC6(CC5)COc5c6ccc6c5CN(C5CCC(=O)NC5=O)C6=O)(C5CC5)CC4)nn3)CC2)cc1Cl` (stereo partly drawn) [Compound 238], for which the inhibition at 0.01 µM at AR protein [1] is 31%; on AR protein [2] it was 54%. Also, the inhibition at 0.1 µM was 61% at AR protein [1] and 79% at AR protein [2]. The IC50 is 0.021 µM in the test with LNCaP FGC cells and 0.0016 µM in the test with VCaP cells.
For the compound `N#Cc1ccc(O[C@H]2CC[C@H](NC(=O)c3ccc(N4CCC(F)(CN5CCC6(CC5)COc5cc7c(cc5C6)C(=O)N(C5CCC(=O)NC5=O)C7=O)CC4)nn3)CC2)cc1Cl` (stereo partly drawn) [Compound 67], the figures for the inhibition at 0.01 µM on AR protein [1] and on AR protein [2] were 37% and 43%, respectively. In addition, the inhibition at 0.1 µM was determined as 60% on AR protein [1] and 72% on AR protein [2]. The IC50 amounted to 0.015 µM in the test with LNCaP FGC cells and 0.19 µM in the test on VCaP cells.
Regarding `N#Cc1ccc(O[C@H]2CC[C@H](NC(=O)c3ccc(N4CCC5(CC4)CC(F)(F)c4cc6c(cc4O5)C(=O)N(C4CCC(=O)NC4=O)C6=O)nn3)CC2)cc1Cl` (stereo partly drawn) [Compound 36], the inhibition at 0.01 µM on AR protein [1] came to 18%; at AR protein [2], 17%. Moreover, the inhibition at 0.1 µM at AR protein [1] was found to be 22%; on AR protein [2], 19%. Also, the IC50 is 3.2 µM with LNCaP FGC cells and 7.07 µM with VCaP cells.
With `COc1cc(O[C@H]2C(C)(C)[C@H](NC(=O)c3ccc(N4CCC(F)(CN5CCC6(CC5)COc5cc7c(cc56)C(=O)N(C5CCC(=O)NC5=O)C7=O)CC4)cc3)C2(C)C)ccc1C#N` (stereo partly drawn) [Compound 273], the inhibition at 0.01 µM on AR protein [1] was 2%; at AR protein [2], -20%. Further, the inhibition at 0.1 µM was 26% at AR protein [1] and 7% at AR protein [2]. Further, the IC50 amounted to 96.4 µM with LNCaP FGC cells and 0.97 µM in the test with VCaP cells.
Regarding `N#Cc1ccc(O[C@H]2CC[C@H](NC(=O)c3ccc(N4CCC5(CC4)CC(C(=O)N4CCC6(CC4)COc4c6ccc6c4CN(C4CCC(=O)NC4=O)C6=O)C5)nn3)CC2)cc1Cl` (stereo partly drawn) [Compound 254], the inhibition at 0.01 µM on AR protein [1] was found to be 53%; at AR protein [2] it was 56%. Besides, the inhibition at 0.1 µM on AR protein [1] stood at 45%; at AR protein [2], 85%. The IC50 worked out at 49.1 µM in the test with LNCaP FGC cells and 0.0025 µM in the test with VCaP cells.
As for `COc1cc(O[C@H]2C(C)(C)[C@H](NC(=O)c3ccc(N4CCC(C)(CN5CCC6(CC5)COc5cc7c(cc56)C(=O)N(C5CCC(=O)NC5=O)C7=O)CC4)cc3)C2(C)C)ccc1C#N` (stereo partly drawn) [Compound 288], the inhibition at 0.01 µM on AR protein [1] is -18%; at AR protein [2], 7%. Moreover, the inhibition at 0.1 µM stood at 18% on AR protein [1] and 41% on AR protein [2]. For the same compound, the results for the IC50 with LNCaP FGC cells and with VCaP cells were 65.9 µM and 0.074 µM, respectively.
On to `COc1cc(O[C@H]2CC[C@H](NC(=O)c3ccc(N4CCC(CN5CC6(CCc7cc8c(cc7O6)C(=O)N(C6CCC(=O)NC6=O)C8=O)C5)(OC)CC4)nn3)CC2)ccc1C#N` (stereo partly drawn) [Compound 231], for which the inhibition at 0.01 µM at AR protein [1] was 31%; at AR protein [2], 11%. Moreover, the inhibition at 0.1 µM at AR protein [1] came out at 28%; at AR protein [2], 63%. Moreover, the IC50 came out at 3.71 µM in the test on LNCaP FGC cells and 5.12 µM in the test on VCaP cells.
For the compound `COc1cc(O[C@H]2C(C)(C)[C@H](NC(=O)c3ccc(N4CCC(CN5CCC6(CC5)COc5c6ccc6c5C(=O)N(C5CCC(=O)NC5=O)C6=O)CC4)cc3)C2(C)C)ccc1C#N` (stereo partly drawn) [Compound 234], the inhibition at 0.01 µM on AR protein [1] amounted to 58%; on AR protein [2], 35%. The values for the inhibition at 0.1 µM on AR protein [1] and on AR protein [2] were 81% and 72%, respectively. In addition, the IC50 in the test on LNCaP FGC cells worked out at 0.27 µM; in the test on VCaP cells, 0.036 µM.
